Patent US9758527B2, “Cyclohexene derivative, preparation method therefor, and pharmaceutical composition for preventing or treating metabolic diseases, containing same as active ingredient” (HYUNDAI PHARM CO., LTD., priority 2014, dated 2017)
Where two headings read alike, the source gives them in different places.

Biological target: T1, G protein-coupled receptor 119 (GPR-119) (Mesocricetus auratus, UniProt A0A1U8CD06)
T1 construct: hamster-derived β-cells containing G protein-coupled receptor 119 (GPR-119), HIT-T15 cells; host or cells: HIT-T15 (hamster pancreatic β-cells)
T1 sequence (A0A1U8CD06 1-334): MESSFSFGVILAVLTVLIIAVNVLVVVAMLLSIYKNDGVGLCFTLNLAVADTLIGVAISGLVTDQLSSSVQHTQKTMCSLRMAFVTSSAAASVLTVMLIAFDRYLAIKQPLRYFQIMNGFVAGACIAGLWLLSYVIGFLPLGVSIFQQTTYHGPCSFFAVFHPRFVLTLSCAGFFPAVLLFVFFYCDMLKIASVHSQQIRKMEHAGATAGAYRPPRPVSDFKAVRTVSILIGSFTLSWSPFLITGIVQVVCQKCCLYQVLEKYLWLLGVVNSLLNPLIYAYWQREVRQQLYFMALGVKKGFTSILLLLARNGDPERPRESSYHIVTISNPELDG
Test: Evaluation of cAMP activity in HIT-T15 cells (HTRF cAMP dynamic kit)
Assay type: cell-based, hamster
Conditions: cAMP activation
Procedure, shortened: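 HIT-T15 cells, 60,000/well, treated next day with compound at six concentrations ([…]) for 1 h at 37° C. Lysate cAMP quantified by HTRF competitive immunoassay (D2-cAMP, cryptate anti-cAMP); activity taken as change in FRET signal relative to DMSO.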

[1] = 1 h at 37° C., six concentrations, read-out: EC50

Row | Compound | EC50 [1] | EC50 (read-out: EC50 value)
1 | CC(C)c1noc(N2CCC(COc3ccc(C4=CCC(C(=O)N5CCC5)CC4)cc3)CC2)n1 (stereo not drawn) [Example 65, azetidin-1-yl(4-(4-((1-(3-isopropyl-1,2,4-oxadiazol-5-yl)piperidin-4-yl)methoxy)phenyl)cyclohex-3-enyl)methanone] | 41 nM | ≤ 50 nM
2 | CC(C)c1noc(N2CCC(COc3ccc(C4=CCC(C(=O)N5CCOCC5)CC4)cc3)CC2)n1 (stereo not drawn) [Example 66, (4-(4-((1-(3-isopropyl-1,2,4-oxadiazol-5-yl)piperidin-4-yl)methoxy)phenyl)cyclohex-3-enyl)(morpholino)methanone] | 18 nM | ≤ 50 nM
3 | CC(C)(C)OC(=O)N1CCC(COc2ccc(C3=CCC(C(=O)NC(CO)CO)CC3)cc2F)CC1 (stereo not drawn) [Example 67, tert-butyl 4-((4-(4-(1,3-dihydroxypropan-2-ylcarbamoyl)cyclohex-1-enyl)-2-fluorophenoxy)methyl)piperidine-1-carboxylate] | 60 nM | –
4 | CC(C)(C)OC(=O)N1CCC(COc2ccc(C3=CCC(C(=O)NC(CO)CO)CC3)cn2)CC1 (stereo not drawn) [Example 68, tert-butyl 4-((5-(4-(1,3-dihydroxypropan-2-ylcarbamoyl)cyclohex-1-enyl)pyridin-2-yloxy)methyl)piperidine-1-carboxylate] | 300 nM | –
5 | CC(C)(C)OC(=O)N1CCC(COc2ccc(C3=CCC(C(=O)N4CCOCC4)CC3)cn2)CC1 (stereo not drawn) [Example 70, tert-butyl 4-((5-(4-(morpholine-4-carbonyl)cyclohex-1-enyl)pyridin-2-yloxy)methyl)piperidine-1-carboxylate] | 45 nM | ≤ 50 nM
6 | CC(C)(C)OC(=O)N1CCC(COc2ccc(C3=CCC(C(=O)N4CCSCC4)CC3)cc2F)CC1 (stereo not drawn) [Example 71, tert-butyl 4-((2-fluoro-4-(4-(thiomorpholine-4-carbonyl)cyclohex-1-enyl)phenoxy)methyl)piperidine-1-carboxylate] | 5.4 nM | ≤ 50 nM
7 | CC(C)(C)OC(=O)N1CCC(COc2ccc(C3=CCC(C(=O)N4CCSCC4)CC3)cn2)CC1 (stereo not drawn) [Example 72, tert-butyl 4-((5-(4-(thiomorpholine-4-carbonyl)cyclohex-1-enyl)pyridin-2-yloxy)methyl)piperidine-1-carboxylate] | 25 nM | ≤ 50 nM
8 | CC(C)(C)OC(=O)N1CCC(COc2ccc(C3=CCC(C(=O)N4CCS(=O)(=O)CC4)CC3)cc2F)CC1 (stereo not drawn) [Example 73, tert-butyl 4-((2-fluoro-4-(4-(thiomorpholine-1,1-dioxide-4-carbonyl)cyclohex-1-enyl)phenoxy)methyl)piperidine-1-carboxylate] | 11 nM | ≤ 50 nM
9 | CC(C)c1noc(N2CCC(COc3ccc(C4=CCC(C(=O)N5CCSCC5)CC4)cc3)CC2)n1 (stereo not drawn) [Example 74, (4-(4-((1-(3-isopropyl-1,2,4-oxadiazol-5-yl)piperidin-4-yl)methoxy)phenyl)cyclohex-3-enyl)(thiomorpholino)methanone] | 6.2 nM | ≤ 50 nM
10 | CC(C)c1noc(N2CCC(COc3ccc(C4=CCC(C(=O)NCCF)CC4)cc3)CC2)n1 (stereo not drawn) [Example 75, N-(2-fluoroethyl)-4-(4-((1-(3-isopropyl-1,2,4-oxadiazol-5-yl)piperidin-4-yl)methoxy)phenyl)cyclohex-3-enecarboxamide] | 210 nM | –
11 | CC(C)c1noc(N2CCC(COc3ccc(C4=CCC(C(=O)N(C)CCCNC(=O)OC(C)(C)C)CC4)cc3)CC2)n1 (stereo not drawn) [Example 76, tert-butyl 3-(4-(4-((1-(3-isopropyl-1,2,4-oxadiazol-5-yl)piperidin-4-yl)methoxy)phenyl)-N-methylcyclohex-3-enecarboxamido)propylcarbamate] | 12 nM | ≤ 50 nM
12 | CC(C)c1noc(N2CCC(COc3ccc(C4=CCC(C(=O)N(C)CCCN)CC4)cc3)CC2)n1 (stereo not drawn) [Example 77, N-(3-aminopropyl)-4-(4-((1-(3-isopropyl-1,2,4-oxadiazol-5-yl)piperidin-4-yl)methoxy)phenyl)-N-methylcyclohex-3-enecarboxamide] | 12 nM | ≤ 50 nM
13 | CC(C)c1noc(N2CCC(COc3ccc(C4=CCC(C(=O)NCC(F)(F)F)CC4)cc3)CC2)n1 (stereo not drawn) [Example 78, 4-(4-((1-(3-isopropyl-1,2,4-oxadiazol-5-yl)piperidin-4-yl)methoxy)phenyl)-N-(2,2,2-trifluoroethyl)cyclohex-3-enecarboxamide] | 100 nM | –
14 | CCN1CCN(C(=O)C2CC=C(c3ccc(OCC4CCN(c5nc(C(C)C)no5)CC4)cc3)CC2)CC1 (stereo not drawn) [Example 79, (4-ethylpiperazin-1-yl)(4-(4-((1-(3-isopropyl-1,2,4-oxadiazol-5-yl)piperidin-4-yl)methoxy)phenyl)cyclohex-3-enyl)methanone] | 49 nM | ≤ 50 nM
15 | CC(C)c1noc(N2CCC(COc3ccc(C4=CCC(C(=O)N(C)CCO)CC4)cc3F)CC2)n1 (stereo not drawn) [Example 81, 4-(3-fluoro-4-((1-(3-isopropyl-1,2,4-oxadiazol-5-yl)piperidin-4-yl)methoxy)phenyl)-N-(2-hydroxyethyl)-N-methylcyclohex-3-enecarboxamide] | 9 nM | ≤ 50 nM
16 | CC(C)(CO)CNC(=O)C1CC=C(c2ccc(OCC3CCN(C(=O)OC(C)(C)C)CC3)c(F)c2)CC1 (stereo not drawn) [Example 82, tert-butyl 4-((2-fluoro-4-(4-(3-hydroxy-2,2-dimethylpropylcarbamoyl)cyclohex-1-enyl)phenoxy)methyl)piperidine-1-carboxylate] | 9 nM | ≤ 50 nM
17 | CC(C)c1noc(N2CCC(COc3ccc(C4=CCC(C(=O)N[C@@H](C)CO)CC4)cc3F)CC2)n1 (stereo partly drawn) [Example 83, 4-(3-fluoro-4-((1-(3-isopropyl-1,2,4-oxadiazol-5-yl)piperidin-4-yl)methoxy)phenyl)-N-((S)-1-hydroxypropan-2-yl)cyclohex-3-enecarboxamide] | 75 nM | –
18 | CC(C)c1noc(N2CCC(COc3ccc(C4=CCC(C(=O)N[C@H](C)CO)CC4)cc3F)CC2)n1 (stereo partly drawn) [Example 84, 4-(3-fluoro-4-((1-(3-isopropyl-1,2,4-oxadiazol-5-yl)piperidin-4-yl)methoxy)phenyl)-N-((R)-1-hydroxypropan-2-yl)cyclohex-3-enecarboxamide] | 30 nM | ≤ 50 nM
19 | CC(C)(C)OC(=O)N1CCC(COc2ccc(C3=CCC(C(=O)NCC(F)F)CC3)cc2F)CC1 (stereo not drawn) [Example 85, tert-butyl 4-((4-(4-(2,2-difluoroethylcarbamoyl)cyclohex-1-enyl)-2-fluorophenoxy)methyl)piperidine-1-carboxylate] | 18 nM | ≤ 50 nM
20 | CC(C)(C)OC(=O)N1CCC(COc2ccc(C3=CCC(C(=O)NCC(F)(F)F)CC3)cn2)CC1 (stereo not drawn) [Example 86, tert-butyl 4-((5-(4-(2,2,2-trifluoroethylcarbamoyl)cyclohex-1-enyl)pyridin-2-yloxy)methyl)piperidine-1-carboxylate] | 130 nM | –
21 | CC(C)(C)OC(=O)N1CCC(COc2ccc(C3=CCC(C(=O)NCC(F)F)CC3)cn2)CC1 (stereo not drawn) [Example 87, tert-butyl 4-((5-(4-(2,2-difluoroethylcarbamoyl)cyclohex-1-enyl)pyridin-2-yloxy)methyl)piperidine-1-carboxylate] | 70 nM | –
22 | CC(C)(C)OC(=O)N1CCC(COc2ccc(C3=CCC(C(=O)NCCF)CC3)cn2)CC1 (stereo not drawn) [Example 88, tert-butyl 4-((5-(4-(2-fluoroethylcarbamoyl)cyclohex-1-enyl)pyridin-2-yloxy)methyl)piperidine-1-carboxylate] | 130 nM | –
